In article PMC5218480 (PLoS ONE, 2017):

System: MV-4-11 cells
Assay: Gene expression microarray analysis (Affymetrix PrimeView) and GSEA
Type: cell-based, human
Design: RFU PODN (11730768_x_at) / Fold change /veh PODN (11730768_x_at) / RFU LINC00158 (11744669_a_at) / Fold change /veh LINC00158 (11744669_a_at) / RFU DUSP10 (11751237_a_at) / Fold change /veh DUSP10 (11751237_a_at) / RFU ID3 (11757404_x_at) / Fold change /veh ID3 (11757404_x_at) / RFU PLEKHG5 (11737974_s_at) / Fold change /veh PLEKHG5 (11737974_s_at) / RFU LRRC4B (11730491_at) / Fold change /veh LRRC4B (11730491_at) / RFU GIMAP4 (11747438_a_at) / Fold change /veh GIMAP4 (11747438_a_at) / RFU KRT8 (11758183_x_at) / Fold change /veh KRT8 (11758183_x_at) / RFU CNN1 (11734310_a_at) / Fold change /veh CNN1 (11734310_a_at) / RFU VPS37D (11726825_at) / Fold change /veh VPS37D (11726825_at) / RFU C10orf10 (11716522_x_at) / Fold change /veh C10orf10 (11716522_x_at) / RFU KIR2DL2 /// KIR2DL4 /// KIR2DL5A /// KIR2DL5B /// KIR2DS1 /// KIR2DS2 /// KIR2DS3 /// KIR2DS4 /// KIR3DL3 /// KIR3DL3 /// KIR3DS1 (11738374_at) / Fold change /veh KIR2DL2 /// KIR2DL4 /// KIR2DL5A /// KIR2DL5B /// KIR2DS1 /// KIR2DS2 /// KIR2DS3 /// KIR2DS4 /// KIR3DL3 /// KIR3DL3 /// KIR3DS1 (11738374_at) / RFU C1QL1 (11718748_at) / Fold change /veh C1QL1 (11718748_at) / RFU TMPRSS4 (11747572_a_at) / Fold change /veh TMPRSS4 (11747572_a_at) / RFU HAMP (11756126_x_at) / Fold change /veh HAMP (11756126_x_at) / RFU RNFT2 (11725882_a_at) / Fold change /veh RNFT2 (11725882_a_at) / RFU NR4A2 (11747474_a_at) / Fold change /veh NR4A2 (11747474_a_at) / RFU ABCC12 (11746883_a_at) / Fold change /veh ABCC12 (11746883_a_at) / RFU TMEM136 (11760407_x_at) / Fold change /veh TMEM136 (11760407_x_at) / RFU CLDN22 /// WWC2 (11732394_at) / Fold change /veh CLDN22 /// WWC2 (11732394_at) / RFU HLA-DPB1 (11760878_x_at) / Fold change /veh HLA-DPB1 (11760878_x_at) / RFU SPINT1 (11716480_a_at) / Fold change /veh SPINT1 (11716480_a_at) / RFU GAP43 (11754022_s_at) / Fold change /veh GAP43 (11754022_s_at) / RFU A4GNT (11735810_at) / Fold change /veh A4GNT (11735810_at) / RFU PRB3 (11715151_x_at) / Fold change /veh PRB3 (11715151_x_at) / RFU TUBB4B (11761932_at) / Fold change /veh TUBB4B (11761932_at) / RFU CAPN14 (11732068_a_at) / Fold change /veh CAPN14 (11732068_a_at) / RFU TMCC2 (11721928_a_at) / Fold change /veh TMCC2 (11721928_a_at) / RFU IRGQ (11745062_a_at) / Fold change /veh IRGQ (11745062_a_at) / RFU FAM174B (11720279_a_at) / Fold change /veh FAM174B (11720279_a_at) / RFU TMPRSS4 (11748680_a_at) / Fold change /veh TMPRSS4 (11748680_a_at) / RFU FAM212B (11763350_a_at) / Fold change /veh FAM212B (11763350_a_at) / RFU PLEKHG5 (11743358_a_at) / Fold change /veh PLEKHG5 (11743358_a_at) / RFU ZSCAN30 (11745921_a_at) / Fold change /veh ZSCAN30 (11745921_a_at) / RFU CMKLR1 (11741424_a_at) / Fold change /veh CMKLR1 (11741424_a_at) / RFU LOC101060620 /// MAPK8IP1 (11723275_at) / Fold change /veh LOC101060620 /// MAPK8IP1 (11723275_at) / RFU SPTSSB (11747773_x_at) / Fold change /veh SPTSSB (11747773_x_at) / RFU PRSS12 (11739890_at) / Fold change /veh PRSS12 (11739890_at) / RFU BIN1 (11741810_x_at) / Fold change /veh BIN1 (11741810_x_at) / RFU WNT11 (11732464_a_at) / Fold change /veh WNT11 (11732464_a_at) / RFU C10orf10 (11716521_a_at) / Fold change /veh C10orf10 (11716521_a_at) / RFU C5orf56 (11738089_at) / Fold change /veh C5orf56 (11738089_at) / RFU CYB561 (11721691_x_at) / Fold change /veh CYB561 (11721691_x_at) / RFU ANKRD19P (11752326_a_at) / Fold change /veh ANKRD19P (11752326_a_at) / RFU OR2T12 /// OR2T33 /// OR2T8 (11738714_s_at) / Fold change /veh OR2T12 /// OR2T33 /// OR2T8 (11738714_s_at) / RFU VCAN (11748164_a_at) / Fold change /veh VCAN (11748164_a_at) / RFU JSRP1 (11732532_at) / Fold change /veh JSRP1 (11732532_at) / RFU KRTAP10-11 (11738290_x_at) / Fold change /veh KRTAP10-11 (11738290_x_at) / RFU MYO3A (11730013_a_at) / Fold change /veh MYO3A (11730013_a_at) / RFU EBF3 (11725865_a_at) / Fold change /veh EBF3 (11725865_a_at) / RFU CAMK2N1 (11719241_x_at) / Fold change /veh CAMK2N1 (11719241_x_at) / RFU C5orf56 (11738088_a_at) / Fold change /veh C5orf56 (11738088_a_at) / RFU OLFML3 (11715873_a_at) / Fold change /veh OLFML3 (11715873_a_at) / RFU LOC100653217 /// NTM (11731650_a_at) / Fold change /veh LOC100653217 /// NTM (11731650_a_at) / RFU MAPK11 (11762145_a_at) / Fold change /veh MAPK11 (11762145_a_at) / RFU FIZ1 (11724087_x_at) / Fold change /veh FIZ1 (11724087_x_at) / RFU OASL (11726364_x_at) / Fold change /veh OASL (11726364_x_at) / RFU SOX15 (11748057_x_at) / Fold change /veh SOX15 (11748057_x_at) / RFU CD79A (11719716_a_at) / Fold change /veh CD79A (11719716_a_at) / RFU HIST1H1D (11736915_at) / Fold change /veh HIST1H1D (11736915_at) / RFU CASKIN2 (11723855_a_at) / Fold change /veh CASKIN2 (11723855_a_at) / RFU LOC730098 (11760151_x_at) / Fold change /veh LOC730098 (11760151_x_at) / RFU OR4N2 (11742367_at) / Fold change /veh OR4N2 (11742367_at) / RFU PRRT2 (11749266_a_at) / Fold change /veh PRRT2 (11749266_a_at) / RFU SNX32 (11753110_a_at) / Fold change /veh SNX32 (11753110_a_at) / RFU CDHR5 (11726645_a_at) / Fold change /veh CDHR5 (11726645_a_at) / RFU RCAN1 (11760418_a_at) / Fold change /veh RCAN1 (11760418_a_at) / RFU FAM167A (11723789_a_at) / Fold change /veh FAM167A (11723789_a_at) / RFU FAM26E (11764081_at) / Fold change /veh FAM26E (11764081_at) / RFU ISYNA1 (11749810_s_at) / Fold change /veh ISYNA1 (11749810_s_at) / RFU ACY1 (11761880_at) / Fold change /veh ACY1 (11761880_at) / RFU 11764098_at / Fold change /veh 11764098_at / RFU SAMD14 (11745864_x_at) / Fold change /veh SAMD14 (11745864_x_at) / RFU NPB (11741838_a_at) / Fold change /veh NPB (11741838_a_at) / RFU TMPRSS6 (11731388_a_at) / Fold change /veh TMPRSS6 (11731388_a_at) / RFU KRTAP10-2 (11738614_at) / Fold change /veh KRTAP10-2 (11738614_at) / RFU ARHGAP8 /// PRR5-ARHGAP8 (11727945_x_at) / Fold change /veh ARHGAP8 /// PRR5-ARHGAP8 (11727945_x_at) / RFU KRTAP5-7 /// NADSYN1 (11734609_at) / Fold change /veh KRTAP5-7 /// NADSYN1 (11734609_at) / RFU RASL12 (11751679_a_at) / Fold change /veh RASL12 (11751679_a_at) / RFU CDKN2B (11736163_a_at) / Fold change /veh CDKN2B (11736163_a_at) / RFU PRF1 (11729649_at) / Fold change /veh PRF1 (11729649_at) / RFU, ZNF638 /// ZNF638-IT1 / Fold change vs veh, ZNF638 /// ZNF638-IT1 / RFU, PANK3 / Fold change vs veh, PANK3 / RFU, SH3YL1 / Fold change vs veh, SH3YL1 / RFU, ZEB2 / Fold change vs veh, ZEB2 / RFU, NRIP1 / Fold change vs veh, NRIP1 / RFU, PTTG1IP / Fold change vs veh, PTTG1IP / RFU, CAPN2 / Fold change vs veh, CAPN2 / RFU, MED14 / Fold change vs veh, MED14 / RFU, SNORA58 / Fold change vs veh, SNORA58 / RFU, C1orf63 / Fold change vs veh, C1orf63 / RFU, LRRFIP1 / Fold change vs veh, LRRFIP1 / RFU, NDUFAF7 / Fold change vs veh, NDUFAF7 / RFU, SLC12A2 / Fold change vs veh, SLC12A2 / RFU, IBTK / Fold change vs veh, IBTK / RFU, ESF1 / Fold change vs veh, ESF1 / Fold change vs veh, TMEM50B / RFU, TAOK1 / Fold change vs veh, TAOK1 / RFU, ACBD3 / Fold change vs veh, ACBD3 / RFU, TMA16 / Fold change vs veh, TMA16 / RFU, RWDD3 / Fold change vs veh, RWDD3 / RFU, BCAT1 / Fold change vs veh, BCAT1 / RFU, EDEM3 / Fold change vs veh, EDEM3 / RFU, TMEM33 / Fold change vs veh, TMEM33 / RFU, WDR75 / Fold change vs veh, WDR75 / RFU, AHCTF1 / Fold change vs veh, AHCTF1 / RFU, TFRC / Fold change vs veh, TFRC / RFU, ZDHHC17 / Fold change vs veh, ZDHHC17 / RFU, NOM1 / Fold change vs veh, NOM1 / RFU, ARL8B / Fold change vs veh, ARL8B / RFU, ZBTB11 / Fold change vs veh, ZBTB11 / RFU, TAMM41 / Fold change vs veh, TAMM41 / RFU, KIAA1704 /// LOC100996395 / Fold change vs veh, KIAA1704 /// LOC100996395 / RFU, ING1 / Fold change vs veh, ING1 / RFU, TRMT61B / Fold change vs veh, TRMT61B / RFU, FUBP3 / Fold change vs veh, FUBP3 / RFU, TP53 / Fold change vs veh, TP53 / RFU, TNKS2 / Fold change vs veh, TNKS2 / RFU, ZFP14 / Fold change vs veh, ZFP14 / RFU, ACTR2 / Fold change vs veh, ACTR2 / RFU, PPP3R1 / Fold change vs veh, PPP3R1 / RFU, PIK3R1 / Fold change vs veh, PIK3R1 / RFU, HNRNPA1 / Fold change vs veh, HNRNPA1 / RFU, RNF170 / Fold change vs veh, RNF170 / RFU, ZNF28 / Fold change vs veh, ZNF28 / RFU, RNGTT / Fold change vs veh, RNGTT / RFU, OGT / Fold change vs veh, OGT / RFU, BRD1 / Fold change vs veh, BRD1 / RFU, MARS / Fold change vs veh, MARS / RFU, ZNF655 / Fold change vs veh, ZNF655 / RFU, FAHD1 / Fold change vs veh, FAHD1 / RFU, BDP1 / Fold change vs veh, BDP1 / RFU, LRRCC1 / Fold change vs veh, LRRCC1 / RFU, ARID1A / Fold change vs veh, ARID1A / RFU, ZNF146 / Fold change vs veh, ZNF146 / RFU, ZNF330 / Fold change vs veh, ZNF330 / RFU, GPN3 / Fold change vs veh, GPN3 / RFU, C9orf123 / Fold change vs veh, C9orf123 / RFU, N4BP2L2 / Fold change vs veh, N4BP2L2 / RFU, ARFIP1 / Fold change vs veh, ARFIP1 / RFU, FAM179B / Fold change vs veh, FAM179B / RFU, BCL10 / Fold change vs veh, BCL10 / RFU, UHRF1BP1L / Fold change vs veh, UHRF1BP1L / RFU, BET1 / Fold change vs veh, BET1 / RFU, CNOT2 / Fold change vs veh, CNOT2 / RFU, ZNF268 / Fold change vs veh, ZNF268 / Fold change vs veh, ZNF507 / RFU, DGCR2 / Fold change vs veh, DGCR2 / RFU, WDSUB1 / Fold change vs veh, WDSUB1 / Fold change vs veh, HSP90B1 /// MIR3652 / RFU, ADSS / Fold change vs veh, ADSS / RFU, GK / Fold change vs veh, GK / RFU, ZNF148 / Fold change vs veh, ZNF148 / RFU, TAF9 / Fold change vs veh, TAF9 / RFU, SLC1A5 / Fold change vs veh, SLC1A5 / RFU, SLMO2 / Fold change vs veh, SLMO2 / RFU, ABCC4 / Fold change vs veh, ABCC4 / RFU, LOC101060439 /// RAP1B / Fold change vs veh, LOC101060439 /// RAP1B / RFU, RFX7 / Fold change vs veh, RFX7 / RFU, GTPBP10 / Fold change vs veh, GTPBP10 / RFU, CNEP1R1 / Fold change vs veh, CNEP1R1 / RFU, BIVM-ERCC5 /// ERCC5 / Fold change vs veh, BIVM-ERCC5 /// ERCC5 / RFU, ILF3 / Fold change vs veh, ILF3 / RFU 11762660_at / Fold change /veh 11762660_at / RFU VCAN (11757783_s_at) / Fold change /veh VCAN (11757783_s_at) / RFU DDX43 (11728927_at) / Fold change /veh DDX43 (11728927_at) / RFU KRT8 (11758188_x_at) / Fold change /veh KRT8 (11758188_x_at) / RFU NKD1 (11759106_at) / Fold change /veh NKD1 (11759106_at) / RFU SRD5A1 (11742802_a_at) / Fold change /veh SRD5A1 (11742802_a_at) / RFU TPSAB1 /// TPSB2 (11721975_s_at) / Fold change /veh TPSAB1 /// TPSB2 (11721975_s_at) / RFU GSTM3 (11746129_a_at) / Fold change /veh GSTM3 (11746129_a_at) / RFU IL23R (11737362_x_at) / Fold change /veh IL23R (11737362_x_at) / RFU TMEM51 (11727254_a_at) / Fold change /veh TMEM51 (11727254_a_at) / RFU PIWIL2 (11732686_x_at) / Fold change /veh PIWIL2 (11732686_x_at) / RFU ORM1 (11744905_x_at) / Fold change /veh ORM1 (11744905_x_at) / RFU CCDC152 (11743942_at) / Fold change /veh CCDC152 (11743942_at) / RFU ECM1 (11717891_a_at) / Fold change /veh ECM1 (11717891_a_at) / RFU IL23R (11748794_a_at) / Fold change /veh IL23R (11748794_a_at) / RFU TNFAIP8L3 (11732012_x_at) / Fold change /veh TNFAIP8L3 (11732012_x_at) / RFU MBOAT4 (11741988_at) / Fold change /veh MBOAT4 (11741988_at) / RFU 11764193_at / Fold change /veh 11764193_at / RFU TMEM53 (11763286_at) / Fold change /veh TMEM53 (11763286_at) / RFU MAGEB2 (11727129_at) / Fold change /veh MAGEB2 (11727129_at) / RFU TMEM200A (11744735_a_at) / Fold change /veh TMEM200A (11744735_a_at) / RFU CCDC152 (11751479_a_at) / Fold change /veh CCDC152 (11751479_a_at) / RFU FAM211A (11726209_a_at) / Fold change /veh FAM211A (11726209_a_at) / RFU RGS16 (11746705_a_at) / Fold change /veh RGS16 (11746705_a_at) / RFU VCAN (11755009_s_at) / Fold change /veh VCAN (11755009_s_at) / RFU RHOB (11743442_s_at) / Fold change /veh RHOB (11743442_s_at) / RFU RGS16 (11720943_a_at) / Fold change /veh RGS16 (11720943_a_at) / RFU RGS16 (11720944_at) / Fold change /veh RGS16 (11720944_at) / RFU, VPS4B / Fold change vs veh, VPS4B / RFU, CREB1 / Fold change vs veh, CREB1 / RFU, DNAJC13 / Fold change vs veh, DNAJC13 / RFU, GNAQ / Fold change vs veh, GNAQ / RFU, CDK5R1 / Fold change vs veh, CDK5R1 / RFU, ZRANB3 / Fold change vs veh, ZRANB3 / RFU, CUL4A / Fold change vs veh, CUL4A / RFU, CCNY / Fold change vs veh, CCNY / RFU, UFL1 / Fold change vs veh, UFL1 / RFU, COG3 / Fold change vs veh, COG3 / RFU, DIAPH2 / Fold change vs veh, DIAPH2 / RFU, SKA2 / Fold change vs veh, SKA2 / RFU, AFF3 / Fold change vs veh, AFF3 / RFU, LMF1 / Fold change vs veh, LMF1 / RFU, IPO11 / Fold change vs veh, IPO11 / RFU, DFFB / Fold change vs veh, DFFB / RFU, FOXP1 / Fold change vs veh, FOXP1 / RFU, CARD8 / Fold change vs veh, CARD8 / RFU, STRN3 / Fold change vs veh, STRN3 / RFU, ADK / Fold change vs veh, ADK / RFU, RASSF2 / Fold change vs veh, RASSF2 / RFU, WIPF1 / Fold change vs veh, WIPF1 / RFU, LARP1B / Fold change vs veh, LARP1B / RFU, RASA1 / Fold change vs veh, RASA1 / RFU, RB1 / Fold change vs veh, RB1 / RFU, PPFIA1 / Fold change vs veh, PPFIA1 / RFU, MAT2A / Fold change vs veh, MAT2A / RFU, CCT5 / Fold change vs veh, CCT5 / RFU, WDR92 / Fold change vs veh, WDR92 / RFU, CUX1 / Fold change vs veh, CUX1 / RFU, TTC7A / Fold change vs veh, TTC7A / RFU, TMEM135 / Fold change vs veh, TMEM135 / RFU, DEPTOR / Fold change vs veh, DEPTOR / RFU, CPM / Fold change vs veh, CPM / RFU, DNAJB6 / Fold change vs veh, DNAJB6 / RFU, CACNA2D3 / Fold change vs veh, CACNA2D3 / RFU, DTX4 / Fold change vs veh, DTX4 / RFU, TFCP2 / Fold change vs veh, TFCP2 / RFU, GMCL1 /// GMCL1P1 / Fold change vs veh, GMCL1 /// GMCL1P1 / RFU, AEBP2 / Fold change vs veh, AEBP2 / RFU, SNHG1 /// SNORD22 /// SNORD25 /// SNORD26 /// SNORD27 /// SNORD28 /// SNORD29 /// SNORD31 / Fold change vs veh, SNHG1 /// SNORD22 /// SNORD25 /// SNORD26 /// SNORD27 /// SNORD28 /// SNORD29 /// SNORD31 / Fold change (Aza/veh), C12orf56 (ProbeSet 11735607_a_at) / Fold change (ACY-1035/veh), C12orf56 (ProbeSet 11735607_a_at) / Fold change (Aza/veh), FGFR1OP (ProbeSet 11751329_s_at) / Fold change (ACY-1035/veh), FGFR1OP (ProbeSet 11751329_s_at) / Fold change (Aza/veh), VPS36 (ProbeSet 11739960_a_at) / Fold change (ACY-1035/veh), VPS36 (ProbeSet 11739960_a_at) / RFU SYPL1 (11715823_x_at) / Fold change /veh SYPL1 (11715823_x_at) / RFU IGFBP7 (11715501_s_at) / Fold change /veh IGFBP7 (11715501_s_at) / RFU REEP3 (11722064_at) / Fold change /veh REEP3 (11722064_at) / RFU IGLL1 (11728026_x_at) / Fold change /veh IGLL1 (11728026_x_at): dose or concentration left out as unconfirmed
Conditions: ProbeSet 11725901_x_at; LIST B

Nc1ccc(-c2cccs2)cc1NC(=O)c1ccc2c(c1)cc(C1CC1)n2CCN1CCOCC1 [ACY-1035]
RFU, RWDD3: 19.72 RFU
